A word on the logD: it is lipophilicity at a set pH, counting ionised and neutral species.

This passage reports logD and logP results from the SangsterLogP compilation.

Data set [1] is described as follows: method code SF, from DOI: 10.1021/jm00217a007, PMID: 17751. The note with it: pH 9.0.
The nature of data set [2]: method code SF-GLC, from Hermens, J., & De Bruijn, J. (1987). A QSAR study for fish toxicity data of organophosphorus compounds. QSAR in Drug Design and Toxicology, 10, 343-345.
Data set [3] is described as follows: method code SF, from DOI: 10.1021/jm00010a006, PMID: 7752187.
The nature of data set [4]: method code SF-HPLC, from DOI: 10.1124/dmd.30.12.1497, PMID: 12433825. The note with it: pH 7.4.
The nature of data set [5]: method code SF-HPLC, from DOI: 10.1248/bpb.16.154, PMID: 8364451.
Data set [6] in a line: method code SF-AS, from Korenman, Y.; Pazynin, T. (1972). Distribution of nitrosonaphthols between organic solvents and water. J. anal. chem. USSR, 27(4)723-725. The note with it: pH 2.0.
Test in data set [7]: not given
This is another data set of the same source.

Data set [8] is described as follows: method code SF-HPLC, from DOI: 10.1016/j.bmc.2011.10.084, PMID: 22130421. To be noted: pH 7.4.
The nature of data set [9]: from Bundgaard, H.; Hansen, A.; Larsen, C. (1979). Prodrugs as drug delivery systems. VII. Rapid cyclization of methyldiethylthiomalonurate to thiobarbital in aqueous solution. Archiv der Pharmazie - …. To be noted: pH 3.5.
Data set [10] in a line: method code SF-GLC, from DOI: 10.1016/0147-6513(82)90020-3, PMID: 7106034.
The nature of data set [11]: method code SF-AS, from DOI: 10.1016/0304-4165(70)90354-5, PMID: 5474547. To be noted: pH 7.4.
Test in data set [12]: not given
This is another data set of the same source.

Data set [13] is described as follows: method code SF-AS, from DOI: 10.5012/bkcs.2007.28.7.1183.
Test in data set [14]: not given
The source holds these as a separate data set.

Test in data set [15]: not given
This is another data set of the same source.

The nature of data set [16]: method code SF-AS, from DOI: 10.1016/s0021-9673(01)87148-x, PMID: 1744207. The note with it: pH 3.4.
Data set [17] can be described thus: method code G-HPLC, from DOI: 10.6028/nbs.ir.81-2406.
A short description of data set [18]: method code …, from Wang, X.; Song, H. (1996). Determination of octanol-water partition coefficients of organic pollutants by using the dynamic coupled-column liquid chromatographic technique. Transactions of Tianjin ….
Data set [19] is described as follows: method code SF, from DOI: 10.1248/cpb.33.282, PMID: 4006019. To be noted: pH 1.0.
Test in data set [20]: not given
This is another data set of the same source.

A short description of data set [21]: method code SF, from Zheng, Y.; Wu, F.; Li, Y. (2001). Determination of ionization constant and partition coefficient of monoxidine. Journal of Shenyang Pharmaceutical University, 18(1)37-39.
Test in data set [22]: not given
This is another data set of the same source.

Data set [23] is described as follows: method code SF-AS, from DOI: 10.1002/ps.2780370107. The note with it: pH 0.0.
Data set [24] in a line: method code SF-CR+AS, from Korenman, I.; Tishchenko, M.; Kombarova, A. (1977). Distribution of dihydroxynaphthalenes between higher alcohols and water. Zh. Prikl. Khim., 50(4)899-901. The note with it: pH 2.0.
Test in data set [25]: not given
The source holds these as a separate data set.

Data set [26] can be described thus: method code SF-AS, from DOI: 10.1021/jm00069a002, PMID: 8355246. To be noted: pH 7.4.
Data set [27] is described as follows: method code SF, from DOI: 10.1515/bc.2002.085, PMID: 12108546.
A short description of data set [28]: method code SF, from DOI: 10.1016/0021-9673(91)85016-9. The note with it: pH 7.0.
The nature of data set [29]: method code SF-AS, from DOI: 10.1007/bf01067967, PMID: 3820093. To be noted: pH 7.5.
A short description of data set [30]: method code SF-GLC, from DOI: 10.1007/bf00212402, PMID: 7663085.
Test in data set [31]: not given
The source holds these as a separate data set.

The nature of data set [32]: method code SF-AS, from DOI: 10.1016/s0378-5173(98)00405-0, PMID: 10089287. To be noted: pH 7.4.
The nature of data set [33]: method code SF, from DOI: 10.1002/jps.2600620102, PMID: 4566530.
Data set [34] is described as follows: method code SF-AS, from DOI: 10.2307/3575639, PMID: 7313077. To be noted: pH 7.4.
Test in data set [35]: not given
This is another data set of the same source.

Data set [36] in a line: method code SF-AS, from DOI: 10.1111/j.2042-7158.1984.tb04385.x, PMID: 6145771. To be noted: pH 9.2.
A short description of data set [37]: method code SF-CR+AS, from Korenman, I.; Lineva, S.; Gezikova, N. (1978). Extraction of naphthol-sulfonic acids from aqueous solution. Zh. Prikl. Khim., 51(4)869-871.
Data set [38] can be described thus: method code SF-CR, from DOI: 10.1042/bj1780443, PMID: 109087. To be noted: pH 7.4.
A short description of data set [39]: method code SF, from PMID: 23342302. To be noted: pH 7.4.
Test in data set [40]: not given
This is another data set of the same source.

Data set [41] in a line: method code SF, from DOI: 10.1016/0006-2952(79)90429-5, PMID: 444298.
Test in data set [42]: not given
This is another data set of the same source.

Data set [43] in a line: method code SF-HPLC, from PMID: 1293941.
Test in data set [44]: not given
This is another data set of the same source.

A short description of data set [45]: method code SF-AS, from DOI: 10.1021/es00082a014. The note with it: pH 7.0.

The compound `CNC(=S)NCCCCc1c[nH]cn1` gave a logD in [1] of 0.51.
For the compound `COP(=S)(OC)Oc1ccc(Cl)cc1C#N`, in data set [2], the logP is 3.41.
In [3], `c1ccc(Cn2cnnc2)cc1` registered a logP of 0.74.
Take `Clc1cc(Cl)cc(C2(CC(Cl)(Cl)Cl)CO2)c1` (stereo unspecified): the logP is 4.34.
In turn, `CCOc1ccccc1C(N)=O` gave a logD in data set [4] of 1.34.
In [5], `O=C(O)CNC(=O)c1ccccc1O` had a logP of 0.95.
For the compound `O=Nc1ccc2ccccc2c1O`, the logD in [6] is 2.57.
In data set [7], `CCCCCC(CCO)C1N=N1` (stereo unspecified) had a logP of 2.52.
`Cc1ncc([N+](=O)[O-])n1Cc1cn(CCF)nn1` came in with a logD in [8] of -0.38.
Regarding `CCC(CC)(C(=O)NC(N)=S)C(=O)OC`, the logD in data set [9] amounted to 1.82.
In [10], `CCCCOCCOCCSC#N` had a logP of 1.68.
`Cc1cc2ccccc2[nH]1` gave a logD in [11] of 2.53.
The compound `CCCCc1ccncc1` came in with a logP in [12] of 3.13.
`Nc1ccc(S(=O)(=O)Nc2cnc(Cl)cn2)cc1` gave a logP in [13] of 0.25.
`CCOC(=O)c1ccc(O)cc1` registered a logP in data set [14] of 2.25.
Turning to `NC(=O)c1cn(Cc2c(F)cccc2F)nn1`, the logP in data set [15] was 0.88.
Turning to `C/C(=C\c1ccccc1)C(=O)O`, the logD in data set [16] was determined as 2.58.
In [17], `Cc1ccc(C)c(O)c1C` registered a logP of 2.67.
Compound `ClC1(Cl)C2(Cl)C3(Cl)C4(Cl)C(Cl)(Cl)C5(Cl)C3(Cl)C1(Cl)C5(Cl)C24Cl` (stereo unspecified) gave a logP in data set [18] of 6.69.
Regarding `CCCCCC(=O)N(C)CC(=O)O`, in data set [19], the logD amounted to 1.14.
Turning to `CCOP(=S)(OCC)Oc1nc(Cl)c(Cl)cc1Cl`, the logP in data set [20] was found to be 4.77.
In [21], `COc1nc(C)nc(Cl)c1NC1=NCCN1` gave a logP of 1.08.
`COc1c(Cl)c(Cl)c(Cl)c(OC)c1OC` had a logP in data set [22] of 4.8.
Compound `CCOP(=O)(O)Cc1ccc(Cl)cc1` showed a logD in data set [23] of 1.6.
Turning to `Oc1ccc2cccc(O)c2c1`, in data set [24], the logD was found to be 1.94.
With `COc1cc(O)cc(C(C)=O)c1`, the logP in data set [25] was determined as 1.85.
`Cc1c(O)c(=O)ccn1C(C)C` returned a logD in data set [26] of 0.05.
On to `CCCOC(=O)C1(C)CCC=[N+]1[O-]` (stereo unspecified), for which, in data set [27], the logP was -0.3.
The compound `O=c1ccn2c(n1)OC1C(O)C(CO)OC12` (stereo unspecified) returned a logD in data set [28] of -2.85.
In [29], `CCCc1ccc(N)cc1` displayed a logD of 2.4.
The compound `ClC1=C(Cl)[C@]2(Cl)C3C(Cl)C(Cl)C(Cl)C3[C@@]1(Cl)C2(Cl)Cl` (stereo partly specified) returned a logP in data set [30] of 6.22.
Regarding `O=C(O)/C=C/C(=O)c1ccccc1`, the logP in data set [31] was 1.53.
`Cc1nc2ccccn2c(=O)c1C`: the logD in data set [32] was 1.14.
In data set [33], `Cc1cc(C)c2oc(=O)sc2c1` registered a logP of 3.25.
Regarding `CNC(=O)c1cc(N2CC2)c([N+](=O)[O-])cc1[N+](=O)[O-]`, the logD in data set [34] stood at 0.44.
Compound `CCNc1nc(Cl)nc(NC(C)(C)C#N)n1` displayed a logP in data set [35] of 2.18.
As to `CNC(=S)NCCSCc1cncn1C`, the logD in [36] was determined as 0.32.
In [37], `O=S(=O)(O)c1ccc(O)c2ccccc12` yielded a logP of -0.44.
For `Cc1cc(=O)oc2cc(O)ccc12`, the logD in data set [38] was found to be 1.9.
With `Cc1c(COC(CO)CF)[nH]c(=O)[nH]c1=O` (stereo unspecified), in data set [39], the logD is -0.87.
`CCCOc1ccc(O)cc1` had a logP in data set [40] of 2.31.
In turn, `O=NN(CCCl)C(=O)N[C@@H]1O[C@H](CO)[C@@H](O)[C@H](O)[C@H]1O` yielded a logP in [41] of -1.02.
Consider `CCOC(=O)c1ccccc1O`, for which the logP in [42] came to 2.23.
In data set [43], `CCOC(=O)c1ccc(N)cc1` had a logP of 1.87.
With `CC(C)Nc1nc(Cl)nc(NC2CC2)n1`, the logP in [44] is 3.06.
In [45], `Cc1cc(C)c(N)cc1C` returned a logD of 2.29.
